The text below walks through data of patent publication US8586542B2, “Small molecule apoptosis promoters” (Joyant Pharmaceuticals, Inc., priority 2006, dated 2013).

Experiment [1] has as its system Caspase3 in Hela S100. The experiment is described as follows: In-vitro caspase-3 activation assay in Hela S100 extract. The following applies: 100 nM compound, Hela S100, 1 mM dATP; slope versus control (compound 1 = Caspase std.). The class given is biochemical. The protocol:
Caspase3 in most cell extracts can be activated by the addition of 1 mM dATP through the mitochondria caspase pathway. […] Taking advantage of this feature, we use 100 nM of synthetic Smac mimetic compound to test its ability to eliminate IAPB in the Hela S100 and fully induce Caspase3 activity. The In Vitro Caspase3 assay is carried out at 30° C., incubating 100 nM compounds with 30 ug of Hela S100, 1 mM dATP, 10 uM Caspase3 fluorogenic substrate (Caspase3 Substrate II, Fluorogenic, #235425 from Calbiochem). The readout is caspase-3 activity represented by relative fluorogenic unit, which is recorded kinetically. The slope in linear region of the curve for each compound is calculated.
The ratio of each synthetic compound's slope versus the slope of control reflects in vitro caspase-3 activation ability of compounds.

Experiment [2] addresses T1, truncated XIAP containing only BIR1, BIR2, and BIR3 domains (Homo sapiens, UniProt P98170).
T1 construct: truncated XIAP containing only BIR1, BIR2, and BIR3 domains
Kind of experiment: Fluorescent polarization assay (Bir binding). The following applies: competition with 2 nM fluorescein labeled AVPI peptide, room temperature, 1 hour. The protocol: Increasing concentrations of Smac compounds are incubated with 2 nM of labeled peptide (fluorescein labeled 10 mer peptide with AVPI 4 amino acids at its N terminus-Alexa Fluor 488) and truncated XIAP containing only BIR1, BIR2, and BIR3 domains at room temperature for 1 hour. Fluorescence reading, indicative of the bound portion of the labeled peptide, is measured in milipolarization units (mP). The more compound added, less fluorescein labeled peptide bind to the protein due to the competitive binding and less fluorescence signal is released.
Based on this principle, we obtain the Ki value that evaluates compound's binding affinity.

The subject of experiment [3] is HCC461 cells. The experiment is described as follows: Cell viability assay in HCC461 cells (WST-1). The experiment is classed as cell-based. The following applies: HCC461; 48 hrs incubation, WST-1 viability; read-out: HCC461 cell. The protocol:
HCC461 cells plated in 96 well plates at 5×10^4/ml cell density are treated with 50× synthetic Smac mimetic compounds (final concentration range between 30 uM and 0.001 uM). After 48 hrs incubation at 37° C. and 5% CO2, viability of the cells are measured using Cell Proliferation Reagent WST-1 assay kit (Roche Cat #11 644 807 001).
The tetrazolium salts are cleaved to formazan by cellular enzymes. An expansion in the number of viable cells results in an increase in the overall activity of mitochondrial dehydrogenases in the samples. This augmentation in the enzyme activity leads to an increase in the amount of formazan dye formed, which directly correlates to the number of metabolically active cells in the culture. Quantification of the formazan dye produced by metabolically active cells by using a microplate (ELISA) reader at 420-480 nm.
In general terms: Formazan colour is commonly taken as a measure of viable cells.

T1 sequence (P98170 1-356 limits assumed): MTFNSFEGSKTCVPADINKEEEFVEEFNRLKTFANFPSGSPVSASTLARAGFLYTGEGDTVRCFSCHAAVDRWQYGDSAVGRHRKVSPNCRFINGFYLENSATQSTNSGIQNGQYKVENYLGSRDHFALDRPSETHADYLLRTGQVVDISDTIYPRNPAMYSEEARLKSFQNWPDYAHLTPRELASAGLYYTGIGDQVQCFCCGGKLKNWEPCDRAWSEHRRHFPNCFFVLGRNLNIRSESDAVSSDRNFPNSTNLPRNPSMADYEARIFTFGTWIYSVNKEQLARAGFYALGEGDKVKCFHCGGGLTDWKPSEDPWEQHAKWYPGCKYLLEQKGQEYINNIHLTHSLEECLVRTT

As for `CN[C@@H](C)C(=O)N[C@H](C(=O)N1CCCC1C(=O)N[C@@H]1CCCc2ccccc21)[C@@H](C)OCCCCCCO[C@H](C)[C@H](NC(=O)[C@H](C)NC)C(=O)N1CCC[C@H]1C(=O)N[C@@H]1CCCc2ccccc21.Cl.Cl` (some centres unmarked) [Compound 14], the Caspase % in experiment [1] was found to be 104%. Also, the Bir binding in experiment [2] came to 0.158 µM. Also, the IC50 in experiment [3] was 620 nM.
The matching figures for `CN[C@@H](C)C(=O)N[C@@H](Cc1nnn2c1-c1c(C[C@H](NC(=O)[C@H](C)NC)C(=O)N3CCC[C@H]3C(=O)N[C@@H]3CCCc4ccccc43)nnn1CC2)C(=O)N1CCCC1C(=O)N[C@@H]1CCCc2ccccc21.Cl.Cl` (some centres unmarked) [Compound 21]: 70%, 1.13 µM and 2200 nM.
In the same order, the values of `CN[C@@H](C)C(=O)N[C@@H](CCCCNC(=O)c1cccc(C(=O)NCCCC[C@H](NC(=O)[C@H](C)NC)C(=O)N2CCC[C@H]2C(=O)N[C@@H]2CCCc3ccccc32)c1)C(=O)N1CCC[C@H]1C(=O)N[C@@H]1CCCc2ccccc21.Cl.Cl` [Compound 47] are 99%, 0.19 µM and 20 nM.
`CC[C@H](NC)C(=O)N[C@@H](CC#CC#CC[C@H](NC(=O)[C@H](C)NC)C(=O)N1CCC[C@H]1C(=O)N[C@@H]1CCCc2ccccc21)C(=O)N1CCC[C@H]1C(=O)N[C@@H]1CCCc2ccccc21.Cl.Cl` [Compound 16] returned a Caspase % in experiment [1] of 107%. The Bir binding in experiment [2] was 0.22 µM. Besides, in experiment [3], the IC50 was 25 nM.
In turn, `CN[C@@H](C)C(=O)N[C@@H](CCCc1ccc([C@H](NC(=O)[C@H](C)NC)C(=O)N2CCC[C@H]2C(=O)N[C@@H]2CCCc3ccccc32)cc1)C(=O)N1CCC[C@H]1C(=O)N[C@@H]1CCCc2ccccc21.Cl.Cl` [Compound 38] had a Caspase % in experiment [1] of 102%. In addition, the Bir binding in experiment [2] amounted to 0.2 µM.
The compound `CN[C@@H](C)C(=O)N[C@@H](CC#Cc1ccc([C@H](NC(=O)[C@H](C)NC)C(=O)N2CCC[C@H]2C(=O)N[C@@H]2CCCc3ccccc32)cc1)C(=O)N1CCC[C@H]1C(=O)N[C@@H]1CCCc2ccccc21.Cl.Cl` [Compound 26] returned a Caspase % in experiment [1] of 106%. In experiment [2], this compound had a Bir binding of 0.235 µM. Moreover, the IC50 in experiment [3] came out at 100 nM.
The matching figures for `CN[C@@H](C)C(=O)N[C@H](C(=O)N1CCC[C@H]1C(=O)N[C@@H]1CCCc2ccccc21)[C@@H](C)OCc1nnn2c1-c1c(CO[C@H](C)[C@H](NC(=O)[C@H](C)NC)C(=O)N3CCC[C@H]3C(=O)N[C@@H]3CCCc4ccccc43)nnn1CC2.Cl.Cl` [Compound 23]: 109%, 0.13 µM and 490 nM.
In the same order, the values of `CN[C@@H](C)C(=O)N[C@@H](CCCCNC(=O)NCCCC[C@H](NC(=O)[C@H](C)NC)C(=O)N1CCC[C@H]1C(=O)N[C@@H]1CCCc2ccccc21)C(=O)N1CCC[C@H]1C(=O)N[C@@H]1CCCc2ccccc21.Cl.Cl` [Compound 48] are 103%, 0.2 µM and 56 nM.
`CNC(C)C(=O)N[C@@H](CCCCCC[C@H](NC(=O)[C@H](C)NC)C(=O)N1CCC[C@H]1C(=O)NCc1ccccc1)C(=O)N1CCC[C@H]1C(=O)NCc1ccccc1` (some centres unmarked) [Compound 6] showed a Caspase % in experiment [1] of 82%. Also, in experiment [2], the Bir binding worked out at 0.2 µM. Moreover, the IC50 in experiment [3] was 2100 nM.
The matching figures for `CN[C@@H](C)C(=O)N[C@@H](Cc1ccc(OCCCCOc2ccc(C[C@H](NC(=O)[C@H](C)NC)C(=O)N3CCCC3C(=O)N[C@@H]3CCCc4ccccc43)cc2)cc1)C(=O)N1CCCC1C(=O)N[C@@H]1CCCc2ccccc21.Cl.Cl` (some centres unmarked) [Compound 45]: 136%, 0.15 µM and 2 nM.
`CN[C@@H](C)C(=O)N[C@@H](Cc1cn(CCn2cc(C[C@H](NC(=O)[C@H](C)NC)C(=O)N3CCC[C@H]3C(=O)N[C@@H]3CCCc4ccccc43)nn2)nn1)C(=O)N1CCC[C@H]1C(=O)N[C@@H]1CCCc2ccccc21.Cl.Cl` [Compound 20] showed a Caspase % in experiment [1] of 99%. The Bir binding in experiment [2] came out at 0.18 µM. Further, in experiment [3], the IC50 worked out at 520 nM.
In the same order, the values of `CN[C@@H](C)C(=O)N[C@H](C(=O)N1CCCC1)c1ccc(C#CCO[C@H](C)[C@H](NC(=O)[C@H](C)NC)C(=O)N2CCC[C@H]2C(=O)N[C@@H]2CCCc3ccccc32)cc1.Cl.Cl` [Compound 40] are 85%, 0.15 µM and 30 nM.
The matching figures for `CC[C@H](NC)C(=O)N[C@@H](CCCCCC[C@H](NC(=O)[C@H](CC)NC)C(=O)N1CCC[C@H]1C(=O)N[C@@H]1CCCc2ccccc21)C(=O)N1CCC[C@H]1C(=O)N[C@@H]1CCCc2ccccc21` [Compound 10]: 105%, 0.2 µM and 20 nM.
The matching figures for `CN[C@@H](C)C(=O)NC(C(=O)N[C@@H](Cc1cn(C/C=C\Cn2cc(C[C@H](NC(=O)[C@@H](NC(=O)[C@H](C)NC)C(C)(C)C)C(=O)N[C@@H]3CCCc4ccccc43)nn2)nn1)C(=O)N[C@@H]1CCCc2ccccc21)C(C)(C)C.Cl.Cl` (some centres unmarked) [Compound 24]: 81%, 1.5 µM and 1400 nM.
In experiment [1], `CN[C@@H](C)C(=O)N[C@@H](Cc1nnn2c1-c1c(C[C@H](NC(=O)[C@H](C)NC)C(=O)N3CCC[C@H]3C(=O)N[C@@H]3CCCc4ccccc43)nnn1CCC2)C(=O)N1CCCC1C(=O)N[C@@H]1CCCc2ccccc21.Cl.Cl` (some centres unmarked) [Compound 18] displayed a Caspase % of 88%. The compound also gave a Bir binding in experiment [2] of 0.176 µM. Also, the IC50 in experiment [3] was found to be 760 nM.
The matching figures for `CN[C@@H](C)C(=O)N[C@@H](Cc1cn(CCCn2cc(C[C@H](NC(=O)[C@H](C)NC)C(=O)N3CCC[C@H]3C(=O)N[C@@H]3CCCc4ccccc43)nn2)nn1)C(=O)N1CCC[C@H]1C(=O)N[C@@H]1CCCc2ccccc21.Cl.Cl` [Compound 17]: 98%, 0.136 µM and 690 nM.
The matching figures for `CN[C@@H](C)C(=O)N[C@H](C(=O)N1CCC[C@H]1C(=O)N[C@@H]1CCCc2ccccc21)c1ccc(C#CCO[C@H](C)[C@H](NC(=O)[C@H](C)NC)C(=O)N2CCC[C@H]2C(=O)N[C@@H]2CCCc3ccccc32)cc1` [Compound 32]: 109%, 0.08 µM and 5 nM.
Compound `CC[C@H](NC)C(=O)N[C@H](C(=O)N1CCC[C@H]1C(=O)N[C@@H]1CCCc2ccccc21)c1ccc(C#CCO[C@H](C)[C@H](NC(=O)[C@H](C)NC)C(=O)N2CCC[C@H]2C(=O)N[C@@H]2CCCc3ccccc32)cc1.Cl.Cl` [Compound 39] yielded a Caspase % in experiment [1] of 102%. This compound returned a Bir binding in experiment [2] of 0.18 µM. Also, the IC50 in experiment [3] was 160 nM.
The matching figures for `CCC[C@H](NC)C(=O)N[C@@H](CC#CC#CC[C@H](NC(=O)[C@H](C)NC)C(=O)N1CCC[C@H]1C(=O)N[C@@H]1CCCc2ccccc21)C(=O)N1CCC[C@H]1C(=O)N[C@@H]1CCCc2ccccc21.Cl.Cl` [Compound 15]: 87%, 0.638 µM and 80 nM.
For `C=C(C#CCO[C@H](C)[C@H](NC(=O)[C@H](C)NC)C(=O)N1CCC[C@H]1C(=O)N[C@@H]1CCCc2ccccc21)CO[C@H](C)[C@H](NC(=O)[C@H](C)NC)C(=O)N1CCC[C@H]1C(=O)N[C@@H]1CCCc2ccccc21.Cl.Cl` [Compound 42], the Caspase % in experiment [1] is 109%. The Bir binding in experiment [2] worked out at 0.2 µM. The IC50 in experiment [3] was found to be 240 nM.
In the same order, the values of `CC[C@H](NC)C(=O)N[C@@H](CC#CC#CC[C@H](NC(=O)[C@H](CC)NC)C(=O)N1CCC[C@H]1C(=O)N[C@@H]1CCCc2ccccc21)C(=O)N1CCC[C@H]1C(=O)N[C@@H]1CCCc2ccccc21` [Compound 9] are 108%, 0.196 µM and 9 nM.
The matching figures for `CN[C@@H](C)C(=O)N[C@@H](CCCCNC(=O)CC(=O)NCCCC[C@H](NC(=O)[C@H](C)NC)C(=O)N1CCC[C@H]1C(=O)N[C@@H]1CCCc2ccccc21)C(=O)N1CCC[C@H]1C(=O)N[C@@H]1CCCc2ccccc21.Cl.Cl` [Compound 50]: 97%, 0.2 µM and 20 nM.
